One experiment has as its target BLK (Homo sapiens, UniProt P51451). As to the kind of experiment: Other kinase MSA: BLK. Format: biochemical. As for the experimental part:
(§1) Kinase activity, unless otherwise indicated, was measured in vitro using an electrophoretic mobility shift assay (MSA). The phosphorylation of a peptide substrate by BTK and other kinases was measured. The kinase reactions were assembled in a total volume of 25 μL per well in 384 well plates. The following was added to each well: compound buffer (or control); enzyme buffer; and substrate buffer, as further described below.
(§2) Enzyme and compound/inhibitor were optionally pre-incubated. To each well was added: 8 μL of 2.5×ATP and substrate in 1× Master Buffer (1× Master Buffer as described above). The plate was incubated at room temperature for 3 hours. […] OG488 was Oregon Green dye, which was conjugated to the peptide substrate. […] The kinase activity for the kinases in Table 3 were measured at 3 hours incubation time, except that in the case of MAP2K1 and MAP2K2 assay, pre-activation of ERK was done for 30 min with 6 μM of ATP, and then the detection of activated ERK in the presence of compounds was done after 60 minutes of incubation.
(§3) The terminated reactions were analyzed using a 12 channel LABCHIP® 3000 microfluidic detection instrument (available from Caliper Life Sciences, Waltham, Mass.). […] Change in the relative fluorescence intensity of the substrate and product peaks was the parameter measured, reflecting enzyme activity. […]

The target of experiment [1] is T1, Phosphorylation of Y223 of BTK (Homo sapiens, UniProt Q06187).
T1 construct: host or cells: healthy human whole blood, 3 donors
Nature of the experiment: Whole blood compound screening, phosphorylation of Y223 site of BTK (MSD assay). The format is cell-based. The following applies: healthy human whole blood, 2 hours at 37° C., 3 separate donors; read-out: WB BTK-pY223 EC50. The gist of the method: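 Heparinized human whole blood from 3 donors treated 2 h at 37 °C with compounds (8 points, top 10 μM, 1:4 dilution, 0.2% DMSO), then lysed. BTK pY223 quantified by MSD sandwich immunoassay (anti-BTK capture, anti-pY223 detection); EC50 from concentration response.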

For another experiment, the target named is ERBB4 (Homo sapiens, UniProt Q15303). Nature of the experiment: biochemical. As for the experimental part: as §1, §2, §3
For another experiment, the target named is T2, BMX (Homo sapiens, UniProt P51813).
T2 sequence (P51813 1-675): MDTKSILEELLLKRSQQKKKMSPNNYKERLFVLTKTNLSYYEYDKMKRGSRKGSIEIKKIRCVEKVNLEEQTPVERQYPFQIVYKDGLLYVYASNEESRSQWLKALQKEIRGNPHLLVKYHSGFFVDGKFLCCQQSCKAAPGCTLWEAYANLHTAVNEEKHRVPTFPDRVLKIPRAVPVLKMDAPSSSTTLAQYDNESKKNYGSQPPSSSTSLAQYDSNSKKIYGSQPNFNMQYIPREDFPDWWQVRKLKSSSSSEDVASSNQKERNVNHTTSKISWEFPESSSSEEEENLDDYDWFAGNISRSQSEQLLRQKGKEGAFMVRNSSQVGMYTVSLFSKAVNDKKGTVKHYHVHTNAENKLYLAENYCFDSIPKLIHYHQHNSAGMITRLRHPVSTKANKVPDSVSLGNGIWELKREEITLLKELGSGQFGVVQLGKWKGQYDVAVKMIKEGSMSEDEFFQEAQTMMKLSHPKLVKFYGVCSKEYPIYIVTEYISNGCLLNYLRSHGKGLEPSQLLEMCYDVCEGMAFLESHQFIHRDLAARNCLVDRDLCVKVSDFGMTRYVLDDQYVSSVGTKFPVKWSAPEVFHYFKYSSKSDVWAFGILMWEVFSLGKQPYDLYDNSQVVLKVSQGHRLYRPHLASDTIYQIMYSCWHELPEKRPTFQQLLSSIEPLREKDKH
As to the kind of experiment: Other kinase MSA: BMX. Format: biochemical. As for the experimental part: as §1, §2, §3

The IC50 is the concentration that inhibits the measured activity by half. Read a low IC50 as greater potency. The EC50 is the concentration giving half of the maximal effect.

Chain of BLK (P51451 whole entry, species assumed): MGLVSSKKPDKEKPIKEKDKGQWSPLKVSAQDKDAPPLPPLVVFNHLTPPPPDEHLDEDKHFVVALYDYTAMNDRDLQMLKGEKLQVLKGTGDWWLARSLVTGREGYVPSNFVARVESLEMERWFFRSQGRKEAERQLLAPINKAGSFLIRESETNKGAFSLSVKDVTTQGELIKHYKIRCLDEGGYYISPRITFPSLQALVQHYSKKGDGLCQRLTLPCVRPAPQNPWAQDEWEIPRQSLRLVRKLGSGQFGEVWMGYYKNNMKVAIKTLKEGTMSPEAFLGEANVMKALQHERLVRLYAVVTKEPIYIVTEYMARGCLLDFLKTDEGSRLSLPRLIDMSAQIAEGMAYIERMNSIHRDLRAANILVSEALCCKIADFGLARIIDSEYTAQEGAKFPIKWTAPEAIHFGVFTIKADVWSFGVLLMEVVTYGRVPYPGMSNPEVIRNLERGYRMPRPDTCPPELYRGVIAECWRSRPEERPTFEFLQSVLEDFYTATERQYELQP
T1 sequence (Q06187 whole entry): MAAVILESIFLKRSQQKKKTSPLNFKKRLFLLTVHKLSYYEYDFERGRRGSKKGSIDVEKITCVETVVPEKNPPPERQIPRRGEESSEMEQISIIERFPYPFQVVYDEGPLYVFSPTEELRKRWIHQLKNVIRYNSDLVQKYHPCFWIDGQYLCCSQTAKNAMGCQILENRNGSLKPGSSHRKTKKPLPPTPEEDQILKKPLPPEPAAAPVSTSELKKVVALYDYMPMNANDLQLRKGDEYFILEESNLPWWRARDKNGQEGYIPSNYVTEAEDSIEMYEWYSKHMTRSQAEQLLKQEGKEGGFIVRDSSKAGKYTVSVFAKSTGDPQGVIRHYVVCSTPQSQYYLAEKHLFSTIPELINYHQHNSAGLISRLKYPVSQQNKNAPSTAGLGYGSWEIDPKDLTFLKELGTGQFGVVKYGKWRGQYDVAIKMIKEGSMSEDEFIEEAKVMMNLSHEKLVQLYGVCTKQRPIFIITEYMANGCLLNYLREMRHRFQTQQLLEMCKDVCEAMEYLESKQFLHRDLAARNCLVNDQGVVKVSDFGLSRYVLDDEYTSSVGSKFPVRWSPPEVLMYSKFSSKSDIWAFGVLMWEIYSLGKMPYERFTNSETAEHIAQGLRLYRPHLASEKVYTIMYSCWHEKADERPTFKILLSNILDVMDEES
Chain of ERBB4 (Q15303 26-1308, species assumed): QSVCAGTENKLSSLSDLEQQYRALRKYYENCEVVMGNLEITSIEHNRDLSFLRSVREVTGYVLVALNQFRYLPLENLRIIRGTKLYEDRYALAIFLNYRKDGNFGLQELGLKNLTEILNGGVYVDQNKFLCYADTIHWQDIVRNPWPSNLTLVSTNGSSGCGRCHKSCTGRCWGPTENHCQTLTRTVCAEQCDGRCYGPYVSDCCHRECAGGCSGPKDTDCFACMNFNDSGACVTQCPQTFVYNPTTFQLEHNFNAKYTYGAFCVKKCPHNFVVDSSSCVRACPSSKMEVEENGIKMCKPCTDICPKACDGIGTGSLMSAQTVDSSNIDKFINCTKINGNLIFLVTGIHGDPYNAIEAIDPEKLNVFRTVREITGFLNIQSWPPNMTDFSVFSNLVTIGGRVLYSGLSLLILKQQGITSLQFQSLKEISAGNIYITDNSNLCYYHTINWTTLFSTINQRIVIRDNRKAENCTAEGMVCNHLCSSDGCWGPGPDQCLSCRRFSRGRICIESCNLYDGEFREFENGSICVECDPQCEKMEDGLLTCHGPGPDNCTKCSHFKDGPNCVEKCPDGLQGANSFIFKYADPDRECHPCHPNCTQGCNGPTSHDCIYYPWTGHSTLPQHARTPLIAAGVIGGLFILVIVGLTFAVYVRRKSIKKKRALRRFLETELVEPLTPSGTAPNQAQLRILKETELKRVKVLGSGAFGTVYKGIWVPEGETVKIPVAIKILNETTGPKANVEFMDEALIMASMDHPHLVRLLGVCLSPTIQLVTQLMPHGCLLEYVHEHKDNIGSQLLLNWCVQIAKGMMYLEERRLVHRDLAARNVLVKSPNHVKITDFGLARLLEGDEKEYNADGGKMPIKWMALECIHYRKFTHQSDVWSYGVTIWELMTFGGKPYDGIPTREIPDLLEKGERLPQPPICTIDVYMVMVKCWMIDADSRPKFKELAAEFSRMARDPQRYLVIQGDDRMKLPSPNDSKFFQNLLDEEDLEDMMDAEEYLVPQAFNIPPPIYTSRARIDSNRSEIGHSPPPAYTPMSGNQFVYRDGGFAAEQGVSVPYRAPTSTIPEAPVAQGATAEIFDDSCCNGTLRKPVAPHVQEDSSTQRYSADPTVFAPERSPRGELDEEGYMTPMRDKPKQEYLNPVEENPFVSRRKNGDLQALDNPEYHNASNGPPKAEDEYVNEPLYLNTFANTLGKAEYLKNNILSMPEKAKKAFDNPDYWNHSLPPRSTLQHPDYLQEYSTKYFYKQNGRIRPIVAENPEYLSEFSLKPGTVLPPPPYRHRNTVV

On to `C=CC(=O)N1CCN([C@@H]2CCNc3c2nn(-c2ccc(Oc4ccccc4)cc2)c3C(N)=O)CC1` [Example 6, (7R)-2-(4-phenoxyphenyl)-7-[4-(prop-2-enoyl)piperazin-1-yl]-4,5,6,7-tetrahydro-2H-pyrazolo[4,3-b]pyridine-3-carboxamide], for which the results for the IC50 at BLK, on ERBB4 and against BMX were 137 nM, 757 nM and 15.2 nM, respectively. Besides, the EC50 in experiment [1] was found to be 24.1 nM.

Values taken from patent publication US20220213092A1, “BICYCLIC PYRAZOLE BRUTON'S TYROSINE KINASE INHIBITORS” (AbbVie Inc., priority 2020, published 2022).
